From doi:10.1101/679977v1 (bioRxiv, 2019)
Square brackets hold non-standard residues; d marks the D form. Ends that are not written are not given here. Peptide text beside a SMILES is read from it.

Columns and labels:
E. coli = experiment: Geometric mean of MICs, selectivity and targeting indices; assay type: cell-based; conditions: for TI Beneficial strains (targeting index): GM(E. coli)/GM(beneficial strains); for TI Beneficial strains (targeting index) / TI Pathogenic strains (targeting index): smaller = greater specificity; for TI Pathogenic strains (targeting index): GM(E. coli)/GM(other pathogenic strains); for TI All (TIall, targeting index): all strains, smaller = greater specificity for E. coli; for GM E. coli: geometric mean of MICs against the 6 E. coli strains, >128 counted as 256 μM; for SI E. coli (selectivity index): MHC/GM (E. coli), MHC >128 counted as 256 μM, larger = greater cell selectivity
Beneficial strains = experiment: Geometric mean of MICs; assay type: cell-based; conditions: geometric mean of MICs against beneficial strains; >128 counted as 256 μM
E. coli ATCC25922 = experiment: Salt, serum, acid and alkaline sensitivity; assay type: cell-based; conditions: for MIC, Control: absence of physiological salts, serum, acid and alkaline; for MIC, FeCl3: in presence of 4μM FeCl3 (final); for MIC, MgCl2: in presence of 1 mM MgCl2; for MIC, KCl: in presence of 4.5 mM KCl (final); for MIC, NaCl: in presence of 150 mM NaCl (final); for MIC, PH=2: peptide incubated at pH=2 for 4 h prior to MIC determination; for MIC, PH=4: peptide incubated at pH=4 for 4 h prior to MIC determination; for MIC, PH=10: peptide incubated at pH=10 for 4 h prior to MIC determination; for MIC, PH=12: peptide incubated at pH=12 for 4 h prior to MIC determination
HEK293T cells = experiment: Cytotoxicity MTT assay; assay type: cell-based, human; conditions: 24 h, 37°C, 128 μM peptide, three independent assays
IPEC-J2 cells = experiment: Cytotoxicity MTT assay; assay type: cell-based, porcine; conditions: 24 h, 37°C, 128 μM peptide, three independent assays
E. coli 25922 = experiment: Outer membrane permeability; assay type: cell-based; conditions: 2 μM peptide, relative to 10 μg/mL polymyxin B, 5 mM HEPES pH 7.4

Compound | TI Beneficial strains (targeting index) (E. coli) | TI Pathogenic strains (targeting index) (E. coli) | TI All (TIall, targeting index) (E. coli) | GM E. coli (E. coli) [µM] | GM Beneficial strains (Beneficial strains) [µM] | MIC, Control (E. coli ATCC25922) [µM] | MIC, FeCl3 (E. coli ATCC25922) [µM] | MIC, MgCl2 (E. coli ATCC25922) [µM] | MIC, KCl (E. coli ATCC25922) [µM] | MIC, NaCl (E. coli ATCC25922) [µM] | MIC, PH=2 (E. coli ATCC25922) [µM] | MIC, PH=4 (E. coli ATCC25922) [µM] | MIC, PH=10 (E. coli ATCC25922) [µM] | MIC, PH=12 (E. coli ATCC25922) [µM] | cells killed (HEK293T cells) | cells killed (IPEC-J2 cells) | SI E. coli (selectivity index) (E. coli) | TIall lower than that of melittin (E. coli; from TIall) [times] | increase of specificity for E. coli relative to parental peptide 2 (E. coli; from TIall) [times] | outer membrane permeability (NPN uptake) (E. coli 25922) [%]
CC[C@H](C)[C@H](NC(=O)CNC(=O)[C@H]1CCCN1C(=O)[C@H](CCCCN)NC(=O)[C@H](Cc1c[nH]c2ccccc12)NC(=O)[C@@H](NC(=O)[C@H](CCCCN)NC(=O)[C@H](CCCCN)NC(=O)[C@H](Cc1c[nH]c2ccccc12)NC(=O)[C@@H](NC(=O)[C@H](CCCCN)NC(=O)[C@H](CCCCN)NC(=O)[C@@H](N)Cc1c[nH]c2ccccc12)[C@@H](C)CC)[C@@H](C)CC)C(=O)N[C@@H](CCCCN)C(=O)N[C@@H](CCCCN)C(=O)N[C@@H](Cc1c[nH]c2ccccc12)C(=O)N[C@H](C(=O)N[C@@H](CCCCN)C(=O)N[C@@H](CCCCN)C(=O)N[C@@H](Cc1c[nH]c2ccccc12)C(=O)N[C@H](C(=O)N[C@@H](CCCCN)C(=O)O)[C@@H](C)CC)[C@@H](C)CC [Peptide 4] (H-WKKIWKKIWK[dP]GIKKWIKKWIK-OH; N-terminus and C-terminus assumed) | 0.022 | 0.445 | 0.233 | 1.122 | 50.797 | 2 | 2 | 2 | 2 | 2 | 2 | 2 | 2 | 2 | approximately 99% | approximately 99% |  |  |  | 
CC[C@H](C)[C@H](NC(=O)CNC(=O)[C@H]1CCCN1C(=O)[C@H](CCCCN)NC(=O)[C@H](Cc1c[nH]c2ccccc12)NC(=O)[C@@H](NC(=O)[C@H](CCCCN)NC(=O)[C@@H](NC(=O)[C@@H](N)Cc1c[nH]c2ccccc12)[C@@H](C)CC)[C@@H](C)CC)C(=O)N[C@@H](CCCCN)C(=O)N[C@@H](CCCCN)C(=O)N[C@@H](Cc1c[nH]c2ccccc12)C(=O)N[C@@H](CCCCN)C(=O)N[C@@H](CCCCN)C(=O)O [Peptide 9] (H-WIKIWK[dP]GIKKWKK-OH; N-terminus and C-terminus assumed) | 0.111 | 0.088 | 0.100 | 17.959 | 161.270 | 16 | 16 | 64 | 32 | >64 | 32 | 32 | 16 | 16 |  |  | 14.255 |  |  | 
CC[C@H](C)[C@H](NC(=O)CNC(=O)[C@H]1CCCN1C(=O)[C@H](CCCCN)NC(=O)[C@H](Cc1c[nH]c2ccccc12)NC(=O)[C@@H](NC(=O)[C@H](CCCCN)NC(=O)[C@H](CCCCN)NC(=O)[C@@H](N)Cc1c[nH]c2ccccc12)[C@@H](C)CC)C(=O)N[C@@H](CCCCN)C(=O)N[C@@H](CCCCN)C(=O)N[C@@H](Cc1c[nH]c2ccccc12)C(=O)N[C@H](C(=O)N[C@@H](CCCCN)C(=O)NCC(=O)NCC(=O)NCC(=O)N[C@@H](CCC(N)=O)C(=O)N[C@@H](CCCCN)C(=O)N[C@@H](CCCNC(=N)N)C(=O)N1CCC[C@H]1C(=O)N[C@@H](CCCNC(=N)N)C(=O)N[C@H](C(=O)N[C@@H](CCCNC(=N)N)C(=O)N[C@@H](CC(C)C)C(=O)N[C@@H](CO)C(=O)N[C@@H](C)C(=O)O)C(C)C)[C@@H](C)CC [Peptide 11] (H-WKKIWK[dP]GIKKWIKGGGQKRPRVRLSA-OH; N-terminus and C-terminus assumed) |  | 0.020 | 0.028 | 3.175 | 256.000 | 2 | 4 | 16 | 2 | 32 | 4 | 4 | 2 | 4 |  |  | 80.630 | 31 | 2.4 | 61
CC[C@H](C)[C@H](NC(=O)CNC(=O)[C@H]1CCCN1C(=O)[C@H](CCCCN)NC(=O)[C@H](Cc1c[nH]c2ccccc12)NC(=O)[C@@H](NC(=O)[C@H](CCCCN)NC(=O)[C@H](CCCCN)NC(=O)[C@H](Cc1c[nH]c2ccccc12)NC(=O)CNC(=O)CNC(=O)CNC(=O)[C@H](C)NC(=O)[C@H](CO)NC(=O)[C@H](CC(C)C)NC(=O)[C@H](CCCNC(=N)N)NC(=O)[C@@H](NC(=O)[C@H](CCCNC(=N)N)NC(=O)[C@@H]1CCCN1C(=O)[C@H](CCCNC(=N)N)NC(=O)[C@H](CCCCN)NC(=O)[C@@H](N)CCC(N)=O)C(C)C)[C@@H](C)CC)C(=O)N[C@@H](CCCCN)C(=O)N[C@@H](CCCCN)C(=O)N[C@@H](Cc1c[nH]c2ccccc12)C(=O)N[C@H](C(=O)N[C@@H](CCCCN)C(=O)O)[C@@H](C)CC [Peptide 12] (H-QKRPRVRLSAGGGWKKIWK[dP]GIKKWIK-OH; N-terminus and C-terminus assumed) | 0.031 | 0.039 | 0.035 | 8.000 | 256.000 | 8 | 8 | 32 | 8 | >64 | 16 | 8 | 16 | 16 |  |  | 32.000 |  |  | 
QKRPRVRLSA [Peptide 14, reference compound] | 0.397 | 0.397 | 0.397 | 101.594 | 256.000 | 64 | >64 | >64 | >64 | >64 | 64 | >64 | >64 | 64 |  |  | 2.520 |  |  | 
WIKIWKKIIKKWKK [Peptide 10] |  | 0.707 | 0.376 | 6.350 | 181.019 | 8 | 8 | 64 | 8 | 32 | 8 | 8 | 8 | 8 | approximately 99% | ~63% | 40.315 |  |  | 
